According to patent US20230346827A1 (priority 2020, published 2023):

Test system: Human Schwann cells
Assay: Gene expression array and pathway analysis, Schwann cells, LMW-DS 0.01 mg/ml 48 h
Type: cell-based
Details: for number of genes: abolished nutrient effect / number of genes: total / number of genes: enhanced response to nutrients / number of genes: new effect induced by LMW-DS / number of genes: not different from control / Activation z-score / Predicted activation state relative D2 control: Schwann cells; for Activation z-score / Predicted activation state relative D2 control: D2 LMW-DS treatment
Description: For each cell line, n=8 × 25 cm^2 culture flasks were set up. Two flasks were harvested for each cell type on the day of treatment (24 hours after seeding). This represents the Day0 time point. From the remaining flasks, three flasks were treated with Control Medium and three were treated with Culture Medium (CM) containing LMW-DS to give a final concentration of 0.01 mg/ml. Cells from the treated flasks were collected after 48 hours. Therefore the collected data represent (a) untreated cells (Day0 Controls and Day2 Controls) and (b) cells treated with LMW-DS (ILB®, Tikomed AB, Viken, Sweden, WO 2016/076780) for 48 hours (Day2 LMW-DS treated).
Schwann cells growth medium was prepared by adding 10% of fetal bovine serum (FBS) to high-glucose DMEM and pre-warmed to 37° C. Cells were thawed in a 37° C. water bath for no longer than 2 min.
Cells from 12 vials were each gently transferred to a tube containing 10 ml of high-glucose DMEM medium and centrifuged at 400 relative centrifugal field (RCF) for 10 min. Pellet was re-suspended in culture medium. The cells from the 12 vials were mixed and distributed equally into the previously coated 25 cm^2 flasks (n=8). Cells were incubated at 37° C. with 5% CO2. Cells were allowed to settle for 24 hours before LMW-DS treatment.
LMW-DS was provided at a stock concentration of 20 mg/ml and was kept in a temperature monitored refrigerator at 4° C. A fresh 100x LMW-DS stock (1.0 mg/ml) was prepared in sterile DMEM-F12. The concentrated drug stock was sterile filtered and added to the respective culture media (19.6 ml CM and 0.4 ml LMW-DS stock solution). The Control was made using 19.6 ml CM and 0.4 ml of DMEM-F12. LMW-DS and CM were added to the respective flasks (5 ml each) to reach the 0.01 mg/ml concentration of LMW-DS in each dish with a total of 10 ml CM each.
CM was aspirated into a clean and labelled 15 ml Falcon tube. The flasks (without culture medium) were placed into the -80° C. freezer for 30 minutes. The CM in the Falcon tubes was spun at 3000 x g for 5 minutes. Supernatant was removed and the small pellet was re-suspended in 2.5 ml Trizol:Water (4:1) solution at room temperature (RT, ~22° C.).
Two aliquots of 1 ml lysate were removed from each sample and 200 µl of chloroform was added to each (0.2 ml of chloroform per 1 ml of TRIzol Reagent used during the cell lysis step) and the tube was shaken vigorously. Samples were stored at RT for 2-3 minutes and subsequently centrifuged at 12,000 x g for 15 minutes at 4° C.
The RNA was precipitated from the aqueous phase by adding an equal amount of 100% ethanol. The precipitated RNA was fixed onto a Spin Cartridge, washed twice and dried. The RNA was eluted in 50 µl warm RNase-Free Water. The amount and quality of the purified RNA was measured by Nanodrop. The RNA was stored at -80° C. before transfer to Source Bioscience for Array analysis.
The expression data were downloaded into separate files for each cell line. The ‘Background corrected’ expression is the data from the “gProcessedSignal” of the arrays that is the result of the background signal extracted from the actual signal of the relevant probe. This is the most often used variable in array analysis. The background corrected signal was log2 transformed for all samples for statistical analysis. To reduce the false discovery rate in the samples, the signals that were below ‘expression level’ were removed. The ‘below expression’ level was set at 5 for the log2 transformed expression values.
Based on the expression pattern of the Control probes on each array it was decided to carry out Median Centering for all arrays before analysis to reduce the variability of the results. […]

[1] = pathway analysis of gene expression
[2] = upstream regulator HGF (from line above)

Substance: sodium salt of dextran sulfate [LMW-DS]
- attachment-related molecules differentially expressed: 17
- number of differentially expressed genes (D0 control to D2 LMW-DS treated): 1244
- number of differentially expressed genes (D2 control to D2 LMW-DS treated): 700
- number of genes: abolished nutrient effect (no effect): 21
- number of genes: total (no effect): 21
- number of genes: abolished nutrient effect (significant downregulation): 1
- number of genes: enhanced response to nutrients (significant downregulation): 122
- number of genes: new effect induced by LMW-DS (significant downregulation): 352
- number of genes: not different from control (significant downregulation): 42
- number of genes: total (significant downregulation): 517
- number of genes: abolished nutrient effect (significant upregulation): 13
- number of genes: enhanced response to nutrients (significant upregulation): 441
- number of genes: new effect induced by LMW-DS (significant upregulation): 74
- number of genes: not different from control (significant upregulation): 373
- number of genes: total (significant upregulation): 901
- number of genes: abolished nutrient effect (total): 35
- number of genes: enhanced response to nutrients (total): 563
- number of genes: new effect induced by LMW-DS (total): 426
- number of genes: not different from control (total): 415
- number of genes: total (total): 1439
- TGFβ-induced effect in adhesion of immune cells, activation and aggregation of cells, fibrosis, self-activation of TGFβ (molecular network analysis): totally abolished
- Complex III (cytochrome bc1) [1]: inhibited
- activity and/or levels of glutamate transporters (SLC1A2/3) [1]: increased
- genes altered in Control cultures with no changes in LMW-DS treated cultures (two days): 21
- genes downregulated by growth factors, downregulation stronger with LMW-DS (two days): 122
- genes downregulated in control cultures, upregulated in LMW-DS treated cultures (two days): 13
- genes increased in control cultures, downregulated in LMW-DS treated cultures (two days): 1
- genes upregulated in Control cultures, upregulation stronger with LMW-DS (two days): 441
- Activation z-score (upstream regulator ANGPT2): 1.283
- Predicted activation state relative D2 control (upstream regulator ANGPT2): Activated
- Activation z-score (upstream regulator BMP2): 1.395
- Predicted activation state relative D2 control (upstream regulator BMP2): Activated
- Activation z-score (upstream regulator BMP4): 0.927
- Predicted activation state relative D2 control (upstream regulator BMP4): Activated
- Activation z-score (upstream regulator BMP7): 1.86
- Predicted activation state relative D2 control (upstream regulator BMP7): Activated
- Activation z-score (upstream regulator EGF): 2.059
- Predicted activation state relative D2 control (upstream regulator EGF): Activated
- Activation z-score (upstream regulator FGF2): 2.37
- Predicted activation state relative D2 control (upstream regulator FGF2): Activated
- Activation z-score (upstream regulator GDF2): 2.561
- Predicted activation state relative D2 control (upstream regulator GDF2): Activated
- Activation z-score [2]: 1.432
- Predicted activation state relative D2 control [2]: Activated
- Activation z-score (upstream regulator IGF1): 1.332
- Predicted activation state relative D2 control (upstream regulator IGF1): Activated
- Activation z-score (upstream regulator NRG1): 1.768
- Predicted activation state relative D2 control (upstream regulator NRG1): Activated
- Activation z-score (upstream regulator NRTN): 0.958
- Predicted activation state relative D2 control (upstream regulator NRTN): Activated
- Activation z-score (upstream regulator PGF): 0.254
- Predicted activation state relative D2 control (upstream regulator PGF): Activated
- Activation z-score (upstream regulator TGFβ1): 1.05
- Predicted activation state relative D2 control (upstream regulator TGFβ1): Less inhibited
- Activation z-score (upstream regulator VEGFA): 3.4
- Predicted activation state relative D2 control (upstream regulator VEGFA): Activated
- Activation z-score (upstream regulator WISP2): -0.896
- Predicted activation state relative D2 control (upstream regulator WISP2): Less inhibited
